In one assay the target is T1, wildtype HIV-1 protease (Human immunodeficiency virus type 1 group M subtype B, UniProt P04585).
T1 construct: the wildtype HIV-1 protease (which was expressed in Escherichia coli); made in house; host or cells: Escherichia coli
Briefly: Assay for inhibition of microbial expressed HIV protease (Pepcleav). The class given is biochemical. Particulars: wild type HIV-1 protease expressed in E. coli, peptide substrate, pH 5.5; mean of at least two independent experiments; read-out: Pepcleav. An outline of the steps:
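E. coli-expressed wild-type HIV-1 protease (20 pM) preincubated 30 min at room temperature with inhibitor in pH 5.5 sodium acetate/NaCl/BSA buffer, then 400 μM Val-Ser-Gln-Asn-(βnaphthyl)Ala-Pro-Ile-Val added for 1 h at 30 °C. Quenched with formic acid; product quantified by LC-MS/MS peak area, indinavir internal standard.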

A further assay relates to HIV-1 (H9IIIB strain). Briefly: Antiviral acute infection assay in cell culture (Spread). The class given is cell-based. To be noted: Human immunodeficiency virus 1, T-lymphoid, HIV-1 H9IIIB infection of MT-4 human T-lymphoid cells in 10% FBS; mean of at least two independent experiments. The text has this: Antiviral Assays in Cell Culture (“Spread”)
Acute Infection Assay (“Spread”) data were generated using HIV-1 (H9IIIB strain) infection of MT-4 human T-lymphoid cells in 10% FBS, and according to the methods disclosed by J. P. Vacca et al, “L-735,524: An orally bioavailable human immunodeficiency virus type 1 protease inhibitor,” Proc. Natl. Acad. Sci. USA, Vol. 91, pp. 4096-4100 (April 1994).

The record followed here is patent US9315475B2 (MERCK SHARP & DOHME CORP., priority 2011, dated 2016).

The term EC50 denotes the concentration at which the effect is half-maximal. The low end stands for higher potency in that assay, the high end for lower potency in that assay.

For `COC(=O)N[C@H](C(=O)Nc1cncc(F)c1CC[C@@H]1CN[C@H](COC(=O)NCC(F)(F)F)CO1)[C@@H](c1ccc(F)cc1)c1cccc(F)c1` [Example 281, (βS)-3-fluoro-β-(4-fluorophenyl)-N-(5-fluoro-4-{2-[(2R, 5S)-5-({[(2,2,2-trifluoroethyl)carbamoyl]oxy}methyl)morpholin-2-yl]ethyl}pyridin-3-yl)-Nα-(methoxycarbonyl)-L-phenylalaninamide], the IC50 at wildtype HIV-1 protease is 0.9 nM. Further, the EC50 with HIV-1 (H9IIIB strain) was determined as 14 nM.

Regarding `COC(=O)N[C@H](C(=O)Nc1cccc(F)c1CC[C@@H]1CN[C@H](COC(=O)NCC(F)(F)F)CO1)[C@@H](c1ccc(F)cc1)c1cccc(F)c1` [Example 287], the IC50 at wildtype HIV-1 protease stood at 6 nM. The compound further showed an EC50 with HIV-1 (H9IIIB strain) of 17 nM.

As to `NC(=O)OC[C@@H]1CO[C@H](CCc2c(F)cccc2NC(=O)C[C@@H](c2ccc(F)cc2)c2ccncc2F)CN1` [Example 157, {(3S,6R)-6-[2-(2-fluoro-6-{[(3S)-3-(4-fluorophenyl)-3-(3-fluoropyridin-4-yl)propanoyl]amino}phenyl)ethyl]morpholin-3-yl}methyl carbamate], the IC50 at wildtype HIV-1 protease was found to be 9.6 nM. In the assay with HIV-1 (H9IIIB strain), this compound yielded an EC50 of 18 nM.

Consider `N[C@H](C(=O)Nc1cncc(F)c1CC[C@@H]1CN[C@H](COC(=O)NCC(F)(F)F)CO1)[C@@H](c1ccc(F)cc1)c1cc(F)ccc1F` [Example 268, (βS)-2,5-difluoro-β-(4-fluorophenyl)-N-(5-fluoro-4-{2-[(2R,5S)-5-({[(2,2,2-trifluoroethyl)carbamoyl]oxy}methyl)morpholin-2-yl]ethyl}pyridin-3-yl)-L-phenylalaninamide], for which the IC50 on wildtype HIV-1 protease turned out to be 2.8 nM. This compound returned an EC50 in the assay with HIV-1 (H9IIIB strain) of 44 nM.

For `N[C@H](C(=O)Nc1cncc(F)c1CC[C@@H]1CN[C@H](COC(=O)NCC2CNC(=O)O2)CO1)C(c1ccc(F)cc1)c1ccc(F)cc1` (stereo partly drawn) [Example 240, 4-fluoro-N-[5-fluoro-4-(2-{(2R,5S)-5-[({[(2-oxo-1,3-oxazolidin-5-yl)methyl]carbamoyl}oxy)methyl]morpholin-2-yl}ethyl)pyridin-3-yl]-β-(4-fluorophenyl)-L-phenylalaninamide], the IC50 on wildtype HIV-1 protease was found to be 39 nM. Moreover, the response in the assay on HIV-1 (H9IIIB strain) was half-maximal at 5000 nM (EC50).

For `COC(=O)N[C@H](C(=O)Nc1cncc(F)c1CC[C@@H]1CN[C@H](COC(=O)NCC(F)(F)F)CO1)[C@H](c1ccc(F)cc1)c1ccc(OC(F)(F)F)cc1` [Example 283], the IC50 at wildtype HIV-1 protease amounted to 14 nM. The compound also returned an EC50 with HIV-1 (H9IIIB strain) of 69 nM.

As for `N[C@H](C(=O)Nc1cncc(F)c1CC[C@@H]1CN[C@H](COC(=O)NC2(c3ccccn3)CC2)CO1)C(c1ccc(F)cc1)c1ccc(F)cc1` [Example 214, 4-fluoro-β-(4-fluorophenyl)-N-(5-fluoro-4-{2-[(2R,5S)-5-({[(1-pyridin-2-ylcyclopropyl)carbamoyl]oxy}methyl)morpholin-2-yl]ethyl}pyridin-3-yl)-L-phenylalaninamide], the IC50 at wildtype HIV-1 protease is 5.2 nM. In addition, the EC50 in the assay on HIV-1 (H9IIIB strain) worked out at 58 nM.

As for `O=C(C[C@@H](c1ccc(F)cc1)c1cc(F)cc(F)c1)Nc1cncc(F)c1CC[C@@H]1CNC(COC(=O)NCC(F)(F)F)CO1` (stereo in doubt) [Example 89, (3S)-3-(4-Fluorophenyl)-3-(3,5-difluorophenyl)-N-(5-fluoro-4-(2-((2R,5R)-5-(2,2,2-trifluoroethylaminocarbonyloxymethyl)morpholine-2-yl)ethyl)pyridin-3-yl)propanamide], the IC50 on wildtype HIV-1 protease turned out to be 1.4 nM. The compound further registered an EC50 with HIV-1 (H9IIIB strain) of 13 nM.

As for `CC[C@@H](NC(=O)OC[C@@H]1CO[C@H](CCc2c(F)cncc2NC(=O)[C@@H](N)C(c2ccc(F)cc2)c2ccc(F)cc2)CN1)C(F)(F)F` [Example 216], the IC50 at wildtype HIV-1 protease stood at 3.3 nM. Moreover, the concentration giving a half-maximal response (EC50) in the assay on HIV-1 (H9IIIB strain) was found to be 2000 nM.

As to `N[C@H](C(=O)Nc1cncc(F)c1CC[C@@H]1CN[C@H](COC(=O)NCC2CCOCC2)CO1)C(c1ccc(F)cc1)c1ccc(F)cc1` [Example 208, 4-fluoro-β-(4-fluorophenyl)-N-(5-fluoro-4-{2-[(2R,5S)-5-({[(tetrahydro-2H-pyran-4-ylmethyl)carbamoyl]oxy}methyl)morpholin-2-yl]ethyl}pyridin-3-yl)-L-phenylalaninamide], the IC50 at wildtype HIV-1 protease amounted to 18 nM. This compound gave an EC50 with HIV-1 (H9IIIB strain) of 100 nM.

Take `NC(=O)OC[C@@H]1CO[C@H](COc2c(F)cc(F)cc2NC(=O)[C@@H](N)C(c2ccc(F)cc2)c2ccc(F)cc2)CN1` [Example 258, N-[2-({(2S,5S)-5-[(carbamoyloxy)methyl]morpholin-2-yl}methoxy)-3,5-difluorophenyl]-4-fluoro-β-(4-fluorophenyl)-L-phenylalaninamide]: at wildtype HIV-1 protease, the IC50 is 5 nM. Also, the EC50 in the assay on HIV-1 (H9IIIB strain) stood at 260 nM.

As to `CC(C)OC(=O)N[C@H](C(=O)Nc1cncc(F)c1CC[C@@H]1CN[C@H](COC(=O)NCC(F)(F)F)CO1)C(c1ccc(F)cc1)c1ccc(F)cc1` [Example 277, 4-fluoro-β-(4-fluorophenyl)-N-(5-fluoro-4-{2-[(2R,5S)-5-({[(2,2,2-trifluoroethyl)carbamoyl]oxy}methyl)morpholin-2-yl]ethyl}pyridin-3-yl)-Nα-[(1-methylethoxy)carbonyl]-L-phenylalaninamide], at wildtype HIV-1 protease, the IC50 worked out at 3.2 nM. Also, a half-maximal response in the assay with HIV-1 (H9IIIB strain) (EC50) required 23 nM.

Consider `N[C@H](C(=O)Nc1cncc(F)c1CC[C@@H]1CN[C@H](COC(=O)NCC2CCCCO2)CO1)C(c1ccc(F)cc1)c1ccc(F)cc1` (stereo partly drawn) [Example 213, 4-fluoro-β-(4-fluorophenyl)-N-(5-fluoro-4-{2-[(2R,5S)-5-({[(tetrahydro-2H-pyran-2-ylmethyl)carbamoyl]oxy}methyl)morpholin-2-yl]ethyl}pyridin-3-yl)-L-phenylalaninamide], for which, on wildtype HIV-1 protease, the IC50 turned out to be 6.1 nM. The same compound gave an EC50 with HIV-1 (H9IIIB strain) of 61 nM.

As for `N[C@H](C(=O)Nc1cncc(F)c1CC[C@@H]1CN[C@H](COC(=O)NCC(F)(F)F)CO1)[C@H](c1ccccc1)c1ccc(OC(F)(F)F)cc1` [Example 238, (βR)-N-(5-fluoro-4-{2-[(2R,5S)-5-({[(2,2,2-trifluoroethyl)carbamoyl]oxy}methyl)morpholin-2-yl]ethyl}pyridin-3-yl)-β-phenyl-O-(trifluoromethyl)-L-tyrosinamide], the IC50 at wildtype HIV-1 protease was found to be 69 nM. The EC50 with HIV-1 (H9IIIB strain) amounted to 470 nM.

For `N[C@H](C(=O)Nc1cccc(F)c1CC[C@@H]1CN[C@H](COC(=O)NCC(F)(F)F)CO1)[C@H](c1ccccc1)c1cccc(Cl)c1` [Example 244, (βR)-3-chloro-N-(3-fluoro-2-{2-[(2R,5S)-5-({[(2,2,2-trifluoroethyl)carbamoyl]oxy}methyl)morpholin-2-yl]ethyl}phenyl)-β-phenyl-L-phenylalaninamide], the IC50 at wildtype HIV-1 protease came to 22 nM. For the same compound, the EC50 with HIV-1 (H9IIIB strain) came to 120 nM.

`COC(=O)N[C@H](C(=O)Nc1cccc(F)c1CC[C@@H]1CN[C@H](COC(N)=O)CO1)C(c1ccc(F)cc1)c1ccc(F)cc1` [Example 284, N-[2-(2-{(2R,5S)-5-[(carbamoyloxy)methyl]morpholin-2-yl}ethyl)-3-fluorophenyl]-4-fluoro-β-(4-fluorophenyl)-Nα-(methoxy-carbonyl)-L-phenylalaninamide]: the IC50 at wildtype HIV-1 protease is 12 nM. Moreover, the concentration giving a half-maximal response (EC50) with HIV-1 (H9IIIB strain) was 19 nM.

Turning to `N[C@H](C(=O)Nc1cncc(F)c1CC[C@@H]1CN[C@H](COC(=O)NCC(F)(F)F)CO1)[C@H](c1ccc(F)cc1)c1ccc(C(F)(F)F)cc1` [Example 264, (βS)-β-(4-fluorophenyl)-N-(5-fluoro-4-{2-[(2R,5S)-5-({[(2,2,2-trifluoroethyl)carbamoyl]oxy}methyl)morpholin-2-yl]ethyl}pyridin-3-yl)-4-(trifluoromethyl)-L-phenylalaninamide], the IC50 on wildtype HIV-1 protease was 3.6 nM. Moreover, the concentration for a half-maximal effect (EC50) with HIV-1 (H9IIIB strain) stood at 77 nM.

As for `N[C@H](C(=O)Nc1cncc(F)c1CC[C@@H]1CN[C@H](COC(=O)NCC(F)(F)F)CO1)[C@@H](c1ccc(Cl)cc1)c1cc(F)cc(F)c1` [Example 97, (βS)-β-(4-Chlorophenyl)-3,5-difluoro-N-(5-fluoro-4-{2-[(2R,5S)-5-({[(2,2,2-trifluoroethyl)carbamoyl]oxy}methyl)morpholin-2-yl]ethyl}pyridin-3-yl)-L-phenylalaninamide], the IC50 on wildtype HIV-1 protease was 0.8 nM. This compound also gave an EC50 in the assay on HIV-1 (H9IIIB strain) of 17 nM.

As for `COC(=O)N[C@H](C(=O)Nc1cncc(F)c1CC[C@@H]1CNC(COC(=O)NCC(F)(F)F)CO1)[C@@H](c1ccc(F)cc1)c1cc(F)cc(F)c1` (stereo in doubt) [Example 91, (2S,3S)-2-(Methoxycarbonylamino)-3-(4-fluorophenyl)-3-(3,5-difluorophenyl)-N-(5-fluoro-4-(2-((2R,5R)-5-(2,2,2-trifluoroethylaminocarbonyloxymethyl)morpholine-2-yl)ethyl)pyridin-3-yl)propanamide], the IC50 at wildtype HIV-1 protease came out at 3 nM. In the assay with HIV-1 (H9IIIB strain), the concentration for a half-maximal effect (EC50) came to 16 nM.

Consider `N[C@H](C(=O)Nc1cccc(F)c1CC[C@@H]1CN[C@H](COC(=O)NCC(F)(F)F)CO1)[C@H](c1ccccc1)c1ccc(OC(F)(F)F)cc1` [Example 236, (βR)-N-(3-fluoro-2-{2-[(2R,5S)-5-({[(2,2,2-trifluoroethyl)carbamoyl]oxy}methyl)morpholin-2-yl]ethyl}phenyl)-β-phenyl-O-(trifluoromethyl)-L-tyrosinamide], for which the IC50 on wildtype HIV-1 protease is 69 nM. The compound also registered an EC50 in the assay with HIV-1 (H9IIIB strain) of 580 nM.
